{"source": "ChEMBL document CHEMBL1201862", "about": "“PubChem BioAssay data set” (2004)", "assay_in_all_cases": "NCI-60 cell line screen, 48 h", "key": {"SN12C": {"system": "SN12C"}, "COLO 205": {"system": "COLO 205"}, "PC-3": {"system": "PC-3"}, "A549": {"system": "A549"}, "CCRF-CEM": {"system": "CCRF-CEM"}, "HOP-92": {"system": "HOP-92"}, "DU-145": {"system": "DU-145"}, "RXF 393": {"system": "RXF 393"}, "Malme-3M": {"system": "Malme-3M"}, "IGROV-1": {"system": "IGROV-1"}, "NCI-H23": {"system": "NCI-H23"}, "A498": {"system": "A498"}, "HCT-116": {"system": "HCT-116"}, "MDA-MB-231": {"system": "MDA-MB-231"}, "SF-268": {"system": "SF-268"}, "SK-OV-3": {"system": "SK-OV-3"}, "Hs-578T": {"system": "Hs-578T"}, "HCT-15": {"system": "HCT-15"}, "SW-620": {"system": "SW-620"}, "SF-295": {"system": "SF-295"}, "SK-MEL-2": {"system": "SK-MEL-2"}, "OVCAR-4": {"system": "OVCAR-4"}, "T47D": {"system": "T47D"}, "NCI/ADR-RES": {"system": "NCI/ADR-RES"}, "UO-31": {"system": "UO-31"}, "TK-10": {"system": "TK-10"}, "UACC-257": {"system": "UACC-257"}, "BT-549": {"system": "BT-549"}, "SNB-75": {"system": "SNB-75"}, "CAKI-1": {"system": "CAKI-1"}, "HOP-62": {"system": "HOP-62"}, "KM12": {"system": "KM12"}, "SR": {"system": "SR"}, "MOLT-4": {"system": "MOLT-4"}, "HT-29": {"system": "HT-29"}, "UACC-62": {"system": "UACC-62"}, "HL-60": {"system": "HL-60"}, "HCC 2998": {"system": "HCC 2998"}, "SNB-19": {"system": "SNB-19"}, "786-0": {"system": "786-0"}, "RPMI-8226": {"system": "RPMI-8226"}, "ACHN": {"system": "ACHN"}, "SK-MEL-5": {"system": "SK-MEL-5"}, "MCF7": {"system": "MCF7"}, "M14": {"system": "M14"}, "MDA-N": {"system": "MDA-N"}, "U-251": {"system": "U-251"}, "OVCAR-5": {"system": "OVCAR-5"}, "SK-MEL-28": {"system": "SK-MEL-28"}, "EKVX": {"system": "EKVX"}, "MDA-MB-435": {"system": "MDA-MB-435"}, "K562": {"system": "K562"}, "LOX IMVI": {"system": "LOX IMVI"}, "NCI-H226": {"system": "NCI-H226"}, "OVCAR-8": {"system": "OVCAR-8"}, "OVCAR-3": {"system": "OVCAR-3"}, "NCI-H460": {"system": "NCI-H460"}}, "note": "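The compound was tested at five concentrations on cells cultured in 96-well plates, with a 48-hour exposure period. GI50 = concentration required for 50% inhibition of growth.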 Active and inactive are the calls of the source. No stated cut-off is given here; in the data, active = GI50 up to about 1.1 µM and inactive = higher.", "data": [{"smiles": "O=C1NC(=O)/C(=C/c2ccc(S(=O)(=O)N/N=C/c3ccc(Cl)cc3)cc2)N1", "values": [{"measurement": "GI50", "setting": "SN12C", "result": "> 100 µM (inactive)"}, {"measurement": "GI50", "setting": "COLO 205", "result": "> 100 µM (inactive)"}, {"measurement": "GI50", "setting": "PC-3", "result": "> 100 µM (inactive)"}, {"measurement": "GI50", "setting": "A549", "result": "> 100 µM (inactive)"}, {"measurement": "GI50", "setting": "CCRF-CEM", "result": "> 100 µM (inactive)"}, {"measurement": "GI50", "setting": "HOP-92", "result": "78.5 µM (inactive)"}, {"measurement": "GI50", "setting": "DU-145", "result": "> 100 µM (inactive)"}, {"measurement": "GI50", "setting": "RXF 393", "result": "> 100 µM (inactive)"}, {"measurement": "GI50", "setting": "Malme-3M", "result": "> 100 µM (inactive)"}, {"measurement": "GI50", "setting": "IGROV-1", "result": "92.9 µM (inactive)"}, {"measurement": "GI50", "setting": "NCI-H23", "result": "> 100 µM (inactive)"}, {"measurement": "GI50", "setting": "A498", "result": "23.6 µM (inactive)"}, {"measurement": "GI50", "setting": "HCT-116", "result": "> 100 µM (inactive)"}, {"measurement": "GI50", "setting": "MDA-MB-231", "result": "> 100 µM (inactive)"}, {"measurement": "GI50", "setting": "SF-268", "result": "> 100 µM (inactive)"}, {"measurement": "GI50", "setting": "SK-OV-3", "result": "> 100 µM (inactive)"}, {"measurement": "GI50", "setting": "Hs-578T", "result": "> 100 µM (inactive)"}, {"measurement": "GI50", "setting": "HCT-15", "result": "> 100", "unit": "µM"}, {"measurement": "GI50", "setting": "SW-620", "result": "> 100 µM (inactive)"}, {"measurement": "GI50", "setting": "SF-295", "result": "> 100 µM (inactive)"}, {"measurement": "GI50", "setting": "SK-MEL-2", "result": "> 100 µM (inactive)"}, {"measurement": "GI50", "setting": "OVCAR-4", "result": "> 100 µM (inactive)"}, {"measurement": "GI50", "setting": "T47D", "result": "> 100 µM (inactive)"}, {"measurement": "GI50", "setting": "NCI/ADR-RES", "result": "> 100 µM (inactive)"}, {"measurement": "GI50", "setting": "UO-31", "result": "> 100 µM (inactive)"}, {"measurement": "GI50", "setting": "TK-10", "result": "> 100 µM (inactive)"}, {"measurement": "GI50", "setting": "UACC-257", "result": "> 100 µM (inactive)"}, {"measurement": "GI50", "setting": "BT-549", "result": "> 100 µM (inactive)"}, {"measurement": "GI50", "setting": "SNB-75", "result": "> 100 µM (inactive)"}, {"measurement": "GI50", "setting": "CAKI-1", "result": "> 100 µM (inactive)"}, {"measurement": "GI50", "setting": "HOP-62", "result": "> 100 µM (inactive)"}, {"measurement": "GI50", "setting": "KM12", "result": "> 100 µM (inactive)"}, {"measurement": "GI50", "setting": "SR", "result": "61.2 µM (inactive)"}, {"measurement": "GI50", "setting": "MOLT-4", "result": "> 100 µM (inactive)"}, {"measurement": "GI50", "setting": "HT-29", "result": "> 100 µM (inactive)"}, {"measurement": "GI50", "setting": "UACC-62", "result": "> 100 µM (inactive)"}, {"measurement": "GI50", "setting": "HL-60", "result": "72.9 µM (inactive)"}, {"measurement": "GI50", "setting": "HCC 2998", "result": "> 100 µM (inactive)"}, {"measurement": "GI50", "setting": "SNB-19", "result": "> 100 µM (inactive)"}, {"measurement": "GI50", "setting": "786-0", "result": "> 100 µM (inactive)"}, {"measurement": "GI50", "setting": "RPMI-8226", "result": "> 100 µM (inactive)"}, {"measurement": "GI50", "setting": "ACHN", "result": "> 100 µM (inactive)"}, {"measurement": "GI50", "setting": "SK-MEL-5", "result": "> 100 µM (inactive)"}, {"measurement": "GI50", "setting": "MCF7", "result": "> 100 µM (inactive)"}, {"measurement": "GI50", "setting": "M14", "result": "> 100 µM (inactive)"}, {"measurement": "GI50", "setting": "MDA-N", "result": "> 100 µM (inactive)"}, {"measurement": "GI50", "setting": "U-251", "result": "> 100 µM (inactive)"}, {"measurement": "GI50", "setting": "OVCAR-5", "result": "> 100 µM (inactive)"}, {"measurement": "GI50", "setting": "SK-MEL-28", "result": "> 100 µM (inactive)"}, {"measurement": "GI50", "setting": "EKVX", "result": "> 100 µM (inactive)"}, {"measurement": "GI50", "setting": "MDA-MB-435", "result": "> 100 µM (inactive)"}, {"measurement": "GI50", "setting": "K562", "result": "> 100 µM (inactive)"}, {"measurement": "GI50", "setting": "LOX IMVI", "result": "> 100 µM (inactive)"}, {"measurement": "GI50", "setting": "NCI-H226", "result": "> 100 µM (inactive)"}, {"measurement": "GI50", "setting": "OVCAR-8", "result": "> 100 µM (inactive)"}, {"measurement": "GI50", "setting": "OVCAR-3", "result": "65.9 µM (inactive)"}, {"measurement": "GI50", "setting": "NCI-H460", "result": "> 100 µM (inactive)"}]}]}
